Ends that are not written are not given here.
How the values were obtained:
[1] = system: norovirus VLPs (GII.4, GII.3, GII.17); test: In vitro selection by cDNA display against VLPs with appearance frequency analysis of sequences; conditions: count among peptide aptamer sequences obtained after in vitro selection cycles (7 cycles GII.4, 5 cycles GII.3 and GII.17)
Protocol: The constructed cDNA display and VLPs were incubated in 100 μL of a dialysis selection buffer (20 mM HEPES (pH 7.4), 150 mM NaCl, and 0.05% s Tween 20) at the concentrations shown in Table 9 below at 25° C. for 30 minutes. Subsequently, the resultant was diluted to 1 mL with the dialysis selection buffer, and was put in Float-A-Lyzer G2 Dialysis Device CE, 1000kD MWCO (manufactured by Spectrum Laboratories, Inc.) and was dialyzed with 1 L of the dialysis selection buffer as the external solution at 25° C. During the dialysis, the external solution was replaced with new one 3 times every 2 hours, and the dialysis was performed overnight (for 8 hours) after the 4th replacement. The dialysis product was concentrated with Amicon Ultra 100K (manufactured by Merck Millipore S.A.S.) at 14,000×g for 5 minutes.
To an immunoplate (C-BOTTOM, CLEAR, MICROLON (registered trademark), HIGH BINDING, manufactured by Greiner Bio-One), 100 μL of 3 μg/mL GII.3 or GII.17 VLP solution was added and immobilization was performed at 4° C. overnight. Subsequently, the solution was discarded, and 200 μL of a blocking agent (EMD Millipore™ Blok™ NSB Blocking agents, Thermo Fisher Scientific) was added, followed by gently stirring at room temperature for 2 hours for blocking. On this occasion, wells not immobilizing the VLP were also subjected to similar blocking to be used in preselection.
The solution was discarded from the wells, the wells were washed with 200 μL of a wash buffer (10 mM Hepes (pH 7.4), 150 mM NaCl, and 0.05% Tween 20) three times, and 100 μL of cDNA display (constructed from 1.5 pmol of mRNA-linker) was then put in the wells not immobilizing the VLP, followed by gently stirring at room temperature for 30 minutes to perform preselection. Subsequently, the supernatant containing cDNA display that had not bound to the blocking agent was put in the wells immobilizing the VLP, followed by gently stirring at room temperature for 30 minutes to be bound to the VLP. The supernatant was discarded, washing with 100 μL of the wash buffer was performed four times, and 100 μL of a 5′ SDS solution was then added, followed by incubation at 50° C. for 15 minutes to elute the bound cDNA display.
Subsequently, the VLP-cDNA display complex obtained above was diluted to 100 μL with a dialysis selection buffer, and 10 μL of a coprecipitating agent (Quick-Precip Plus Solution, manufactured by EdgeBio) and 220 μL of 100% ethanol were added, followed by centrifugation at 20,000×g for 5 minutes. Subsequently, the supernatant was discarded, and 1 mL of 70, ethanol was added for rinsing. […] The PCR program was (a) 98° C. for 2 minutes, (b) 95° C. for 20 seconds, (c) 69° C. for 20 seconds, (d) 72° C. for 20 seconds (steps (b) to (d) were performed 25 cycles), and (e) 72° C. for 1 minute.
After the in vitro selection cycle (7 cycles for GII.4 and 5 cycles for GII.3 and GII.17 based on the libraries of 7 cycles obtained by GII.4 dialysis), a sequence library was prepared by the following method, and the sequence information was analyzed. The preparation of the sequence library and the sequencing were performed according to the 16S Metagenomic Sequencing Library Preparation protocol (manufactured by Illumina, Inc.).
The Fastq file of the obtained sequence was converted to a Fasta file, all of the obtained sequences were simultaneously translated from the first base of the start codon (ATG) at position 115 to the third base of the cysteine codon (TGC) at position 156 of the library sequence (SEQ ID NO: 279) using software MEGA.

[2] = molecular target: GII.3 VLP (norovirus GII.3 TCH strain); test: BLI (BLItz), biotin peptide on SA chip, GII.3 VLP at 1 and 0.1 mg/mL

Molecule	Appearance Frequency [1]	other results
56 (HRRGPS; Designed peptide) [compound 56]	9	–
253 (SSKSFA; Designed peptide) [compound 253]	6	–
138 (QLHRHK; Designed peptide) [compound 138]	7	–
151 (STYRSW; Designed peptide) [compound 151]	7	–
139 (RFLMRH; Designed peptide) [compound 139]	7	–
234 (RHGQFF; Designed peptide) [compound 234]	6	–
172 (ECHHVH; Designed peptide) [compound 172]	6	–
46 (RVSLYD; Designed peptide) [compound 46]	10	–
55 (GTRHPS; Designed peptide) [compound 55]	9	–
34 (SVHTHR; Designed peptide) [compound 34]	11	–
257 (TNRTVS; Designed peptide) [compound 257]	6	–
258 (TNYLSF; Designed peptide) [compound 258]	6	–
105 (EEMIVS; Designed peptide) [compound 105]	7	–
68 (SSPRSH; Designed peptide) [compound 68]	9	–
142 (RIVGSA; Designed peptide) [compound 142]	7	–
28 (VMMQCP; Designed peptide) [compound 28]	12	–
144 (RRGDNY; Designed peptide) [compound 144]	7	–
61 (PVRALC; Designed peptide) [compound 61]	9	–
196 (HVGLDK; Designed peptide) [compound 196]	6	–
241 (RSSAKR; Designed peptide) [compound 241]	6	–
29 (DLLNSK; Designed peptide) [compound 29]	11	–
16 (LSKHSR; Designed peptide) [compound 16]	13	–
264 (WTMSPA; Designed peptide) [compound 264]	6	–
164 (AKQRFT; Designed peptide) [compound 164]	6	–

Molecule	Appearance Frequency [1]	other results
119 (HYRSKS; Designed peptide) [compound 119]	7	–
49 (VETDGH; Designed peptide) [compound 49]	10	–
71 (CNLIAK; Designed peptide) [compound 71]	8	–
72 (DFGQSS; Designed peptide) [compound 72]	8	–
173 (EEKTRR; Designed peptide) [compound 173]	6	–
2 (CLSNLA; Designed peptide) [compound 2]	21	–
238 (RLHQCR; Designed peptide) [compound 238]	6	–
262 (VPLLSR; Designed peptide) [compound 262]	6	–
32 (IMSSIG; Designed peptide) [compound 32]	11	–
177 (FTQDAV; Designed peptide) [compound 177]	6	–
249 (SIITRR; Designed peptide) [compound 249]	6	–
33 (SRHCVP; Designed peptide) [compound 33]	11	–
87 (SIESCL; Designed peptide) [compound 87]	8	–
203 (ITLIDT; Designed peptide) [compound 203]	6	–
11 (GHPNPR; Designed peptide) [compound 11]	15	–
192 (HLGFHT; Designed peptide) [compound 192]	6	–
204 (KACAHL; Designed peptide) [compound 204]	6	–
200 (IHSPQK; Designed peptide) [compound 200]	6	–
27 (VHYRQT; Designed peptide) [compound 27]	12	–
107 (FRECLY; Designed peptide) [compound 107]	7	–
85 (LHMKPI; Designed peptide) [compound 85]	8	–
131 (NHCPSR; Designed peptide) [compound 131]	7	–
191 (HLAHKK; Designed peptide) [compound 191]	6	–
154 (TVLHHR; Designed peptide) [compound 154]	7	–

Molecule	Appearance Frequency [1]	other results
103 (AHLHCD; Designed peptide) [compound 103]	7	–
39 (EMSRHC; Designed peptide) [compound 39]	10	–
23 (LKASIR; Designed peptide) [compound 23]	12	–
243 (RTLLVQ; Designed peptide) [compound 243]	6	–
232 (RGHPST; Designed peptide) [compound 232]	6	–
189 (HHNAPI; Designed peptide) [compound 189]	6	–
63 (REESFS; Designed peptide) [compound 63]	9	–
250 (SKVIRW; Designed peptide) [compound 250]	6	–
186 (HDSRIR; Designed peptide) [compound 186]	6	–
102 (AFTSHW; Designed peptide) [compound 102]	7	–
259 (VGMHHS; Designed peptide) [compound 259]	6	–
181 (GKVTFD; Designed peptide) [compound 181]	6	–
125 (LASMWR; Designed peptide) [compound 125]	7	–
225 (PWTVPN; Designed peptide) [compound 225]	6	–
1 (GRRYYI; Designed peptide) [compound 1]	23	–
247 (SEHNRY; Designed peptide) [compound 247]	6	–
10 (GHHVSV; Designed peptide) [compound 10]	15	–
148 (RTGLLS; Designed peptide) [compound 148]	7	–
165 (ARNHGS; Designed peptide) [compound 165]	6	–
229 (QVIQRL; Designed peptide) [compound 229]	6	–
160 (WAGHRH; Designed peptide) [compound 160]	7	–
141 (RHKVHH; Designed peptide) [compound 141]	7	–
174 (FGFREL; Designed peptide) [compound 174]	6	–
194 (HQTGRL; Designed peptide) [compound 194]	6	–

Molecule	Appearance Frequency [1]	other results
163 (AFDGLG; Designed peptide) [compound 163]	6	–
3 (GHRLHS; Designed peptide) [compound 3]	21	–
133 (NKYSHR; Designed peptide) [compound 133]	7	–
224 (PDRFCA; Designed peptide) [compound 224]	6	–
24 (LRSGVN; Designed peptide) [compound 24]	12	–
112 (GHFDAR; Designed peptide) [compound 112]	7	–
115 (GVNSGH; Designed peptide) [compound 115]	7	–
228 (QRVSFL; Designed peptide) [compound 228]	6	–
116 (HHRLHG; Designed peptide) [compound 116]	7	–
60 (NTHRHS; Designed peptide) [compound 60]	9	–
178 (GAKELS; Designed peptide) [compound 178]	6	–
94 (TVASNN; Designed peptide) [compound 94]	8	–
89 (SRSICS; Designed peptide) [compound 89]	8	–
99 (VYIMNH; Designed peptide) [compound 99]	8	–
76 (GGSHST; Designed peptide) [compound 76]	8	–
231 (RGGRTL; Designed peptide) [compound 231]	6	–
104 (DRVQSR; Designed peptide) [compound 104]	7	–
158 (VWYWTS; Designed peptide) [compound 158]	7	–
GRRYYI (also: spacer with Trp and biotin, letters and position not given here) [peptide of SEQ ID NO: 1, synthesized, with spacer sequence and biotin]	–	Kd [2]: 6.01 µM; koff [2]: 0.0546 s⁻¹; kon [2]: 9070 M⁻¹ s⁻¹
GKFFCH (also: spacer with Trp and biotin, letters and position not given here) [peptide of SEQ ID NO: 21, synthesized, with spacer sequence and biotin]	–	Kd [2]: 107 µM; koff [2]: 0.0382 s⁻¹; kon [2]: 358 M⁻¹ s⁻¹
VMMQCP (also: spacer with Trp and biotin, letters and position not given here) [peptide of SEQ ID NO: 28, synthesized, with spacer sequence and biotin]	–	Kd [2]: 218 µM; koff [2]: 0.05 s⁻¹; kon [2]: 230 M⁻¹ s⁻¹
